# Experimental data from US12441710B2, “Substituted piperidino compounds and related methods of treatment” (Alkermes, Inc., priority 2020, dated 2025).
# Target: T1, human orexin-2 receptor (OX2R) (Homo sapiens, UniProt O43614)
# T1 construct: expressed in transfected cells
# T1 sequence (O43614 1-444): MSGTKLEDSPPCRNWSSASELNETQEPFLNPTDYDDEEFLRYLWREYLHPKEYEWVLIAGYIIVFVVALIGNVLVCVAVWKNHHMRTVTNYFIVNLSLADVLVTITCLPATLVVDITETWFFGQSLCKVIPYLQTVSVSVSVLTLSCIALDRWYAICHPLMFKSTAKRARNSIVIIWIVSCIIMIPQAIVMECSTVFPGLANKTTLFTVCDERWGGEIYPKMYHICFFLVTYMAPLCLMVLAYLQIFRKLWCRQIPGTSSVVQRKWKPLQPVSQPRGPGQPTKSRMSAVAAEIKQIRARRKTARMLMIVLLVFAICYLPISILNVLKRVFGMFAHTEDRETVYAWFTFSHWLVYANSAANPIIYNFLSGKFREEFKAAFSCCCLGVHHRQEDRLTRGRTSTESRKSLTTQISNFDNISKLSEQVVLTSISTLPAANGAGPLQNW
# Experiment: Human OX2R IP1 assay
# Format: cell-based
# Conditions: T-Rex CHO cells stably overexpressing human OX2R; IP1 accumulation, 1 hr at 37 degrees C
# Method: T-Rex CHO cells stably overexpressing the human orexin-2 receptor (OX2R) were induced overnight with 1 μg/mL of doxycycline in a T225 flask. 24 hours post induction, cells were lifted with accutase and plated into a 384-well proxy plate at 30,000 cells/well. Cells were then treated with different test compounds in 1× stimulation buffer containing 10 mM Hepes, 1 mM CaCl2), 0.5 mM MgCl2, 4.2 mM KCl, 146 mM NaCl, 5.5 mM glucose, and 50 mM LiCl, pH 7.4, for 1 hr at 37 degrees C. Following incubation, the reaction was terminated by the addition of detection mix, which is composed of IP1-d2 and anti-IP1-cryptate diluted in lysis buffer as well as 1× stimulation buffer. The plates were allowed to incubate for 1 hour at room temperature and were then read in the EnVision® multimode plate reader, measuring inositol phosphate levels.
# Cisbio IP1 is a cell-based functional assay quantifying the accumulation of inositol monophosphate (IP), a metabolite released as a result of orexin 2 receptor activation through the phospholipase C-Gq signaling pathway. This is a competitive immunoassay in which the IP1 produced by the cells upon receptor activation competes with the IP1 analog coupled to the d2 fluorophore (acceptor) for binding to an anti-IP1 monoclonal antibody labeled with Eu cryptate (donor). The measured HTRF-FRET based signal is inversely proportional to the IP1 concentration produced.
# The EC50 values reported in Table 2 were obtained according to the human OX2R IP1 assay described above. Data are the mean EC50 values±S.E.M. The compound methyl (2R,3S)-3-((methylsulfonyl)amino)-2-(((cis-4-phenylcyclohexyl)oxy)methyl)-piperidine-1-carboxylate (sometimes referred to herein as Reference Compound A) is a reference compound which is disclosed in Example 5 of PCT publication no. WO2017/135306.
row,EC50 [nM],Compound
1,< 100,CS(=O)(=O)N[C@H]1CCN(c2ccccn2)C[C@H]1CO[C@H]1CC[C@@H](c2ccccn2)CC1 [Compound 2]
2,< 100,CS(=O)(=O)N[C@H]1CCN(c2ccccn2)C[C@H]1CO[C@H]1CC[C@@H](c2cccnc2)CC1 [Compound 3]
3,< 100,CS(=O)(=O)N[C@H]1CCN(c2ccccn2)C[C@H]1CO[C@H]1CC[C@@H](c2ccncc2)CC1 [Compound 4]
4,< 100,CS(=O)(=O)N[C@H]1CCN(c2ccccn2)C[C@H]1CO[C@H]1CC[C@@H](c2ccccc2F)CC1 [Compound 5]
5,< 100,CS(=O)(=O)N[C@H]1CCN(c2ccccn2)C[C@H]1CO[C@H]1CC[C@@H](c2ccc(F)cc2)CC1 [Compound 7]
6,> 1000,CS(=O)(=O)N[C@H]1CCN(c2ccccn2)C[C@H]1CO[C@H]1CC[C@@H](c2ccncn2)CC1 [Compound 8]
7,> 1000,CS(=O)(=O)N[C@H]1CCN(c2ccccn2)C[C@H]1CO[C@H]1CC[C@@H](c2cnccn2)CC1 [Compound 9]
8,< 100,CS(=O)(=O)N[C@H]1CCN(c2ccccn2)C[C@H]1CO[C@H]1CC[C@@H](c2ccccc2)CC1 [Compound 10]
9,> 1000,CS(=O)(=O)N[C@H]1CCN(c2ccccn2)C[C@H]1CO[C@H]1CC[C@@H](c2ncccn2)CC1 [Compound 11]
10,> 1000,CS(=O)(=O)N[C@H]1CCN(c2ccccn2)C[C@H]1CO[C@H]1CC[C@@H](c2cncnc2)CC1 [Compound 12]
11,> 1000,CS(=O)(=O)N[C@H]1CCN(c2ccccn2)C[C@H]1CO[C@H]1CC[C@@H](c2ccnnc2)CC1 [Compound 13]
12,> 1000,CS(=O)(=O)N[C@H]1CCN(c2ccccn2)C[C@H]1CO[C@H]1CC[C@@H](c2cccnn2)CC1 [Compound 14]
13,< 100,Cc1ccccc1[C@H]1CC[C@@H](OC[C@@H]2CN(c3ccccn3)CC[C@@H]2NS(C)(=O)=O)CC1 [Compound 15]
14,< 100,Cc1cccc([C@H]2CC[C@@H](OC[C@@H]3CN(c4ccccn4)CC[C@@H]3NS(C)(=O)=O)CC2)c1 [Compound 16]
15,< 100,Cc1cccc([C@H]2CC[C@@H](OC[C@@H]3CN(c4ccccn4)CC[C@@H]3NS(C)(=O)=O)CC2)c1C [Compound 17]
16,< 100,Cc1cc(C)cc([C@H]2CC[C@@H](OC[C@@H]3CN(c4ccccn4)CC[C@@H]3NS(C)(=O)=O)CC2)c1 [Compound 18]
17,< 100,CS(=O)(=O)N[C@H]1CCN(c2ncccn2)C[C@H]1CO[C@H]1CC[C@@H](c2ccccc2)CC1 [Compound 19]
18,< 100,CS(=O)(=O)N[C@H]1CCN(c2ccncn2)C[C@H]1CO[C@H]1CC[C@@H](c2ccccc2)CC1 [Compound 20]
19,< 100,CS(=O)(=O)N[C@H]1CCN(c2cnccn2)C[C@H]1CO[C@H]1CC[C@@H](c2ccccc2)CC1 [Compound 21]
20,< 100,CS(=O)(=O)N[C@H]1CCN(c2cccnn2)C[C@H]1CO[C@H]1CC[C@@H](c2ccccc2)CC1 [Compound 22]

row,EC50 [nM],Compound
1,< 100,CS(=O)(=O)N[C@H]1CCN(c2cccc(F)n2)C[C@H]1CO[C@H]1CC[C@@H](c2ccccc2)CC1 [Compound 23]
2,< 100,CS(=O)(=O)N[C@H]1CCN(c2ccc(F)cn2)C[C@H]1CO[C@H]1CC[C@@H](c2ccccc2)CC1 [Compound 24]
3,< 100,CS(=O)(=O)N[C@H]1CCN(c2ncccc2F)C[C@H]1CO[C@H]1CC[C@@H](c2ccccc2)CC1 [Compound 26]
4,< 100,CS(=O)(=O)N[C@H]1CCN(c2ncccc2O)C[C@H]1CO[C@H]1CC[C@@H](c2ccccc2)CC1 [Compound 27]
5,< 100,CS(=O)(=O)N[C@H]1CCN(c2ncccc2C(F)(F)F)C[C@H]1CO[C@H]1CC[C@@H](c2ccccc2)CC1 [Compound 28]
6,< 100,C[C@@]1(CO[C@H]2CC[C@@H](c3ccccc3)CC2)CN(c2ccccn2)CC[C@@H]1NS(C)(=O)=O [Compound 29]
7,100 to 1000,CS(=O)(=O)N[C@H]1CCN(c2ccccn2)C[C@H]1CO[C@H]1CC[C@@H](c2ccccc2O)CC1 [Compound 30]
8,< 100,CS(=O)(=O)N[C@H]1CCN(c2ccccn2)C[C@H]1CO[C@H]1CC[C@@H](c2cccc(O)c2)CC1 [Compound 31]
9,< 100,CS(=O)(=O)N[C@H]1CCN(c2ccccn2)C[C@H]1CO[C@H]1CC[C@@H](c2ccc(O)cc2)CC1 [Compound 32]
10,100 to 1000,CS(=O)(=O)N[C@H]1CCN(c2ccccn2)C[C@H]1CO[C@H]1CC[C@@H](c2cccc(C(F)(F)F)c2)CC1 [Compound 33]
11,< 100,CS(=O)(=O)N[C@H]1CCN(c2ccccn2)C[C@H]1CO[C@H]1CC[C@@H](c2cccc(C#N)c2)CC1 [Compound 35]
12,> 1000,CS(=O)(=O)N[C@H]1CCN(Cc2ccccc2)C[C@H]1CO[C@H]1CC[C@@H](c2ccccc2)CC1 [Compound 36]
13,> 1000,CS(=O)(=O)N[C@H]1CCN(Cc2ccccn2)C[C@H]1CO[C@H]1CC[C@@H](c2ccccc2)CC1 [Compound 39]
14,> 1000,CS(=O)(=O)N[C@H]1CCN(Cc2cccnc2)C[C@H]1CO[C@H]1CC[C@@H](c2ccccc2)CC1 [Compound 40]
15,> 1000,CS(=O)(=O)N[C@H]1CCN(Cc2ccncc2)C[C@H]1CO[C@H]1CC[C@@H](c2ccccc2)CC1 [Compound 41]
16,> 1000,CS(=O)(=O)N[C@H]1CCN(c2cccc3ccnn23)C[C@H]1CO[C@H]1CC[C@@H](c2ccccc2)CC1 [Compound 42]
17,> 1000,CS(=O)(=O)N[C@H]1CCN(c2cccc3ncnn23)C[C@H]1CO[C@H]1CC[C@@H](c2ccccc2)CC1 [Compound 43]
18,100 to 1000,CS(=O)(=O)N[C@H]1CCN(c2nccc3ncnn23)C[C@H]1CO[C@H]1CC[C@@H](c2ccccc2)CC1 [Compound 44]
19,< 100,CS(=O)(=O)N[C@H]1CCN(c2nccc3ocnc23)C[C@H]1CO[C@H]1CC[C@@H](c2ccccc2)CC1 [Compound 45]

# System: human hepatocytes
# Experiment: Hepatocytes stability assay (human hepatocytes)
# Format: in vitro ADME
# Conditions: hepatic clearance divided by liver blood flow, fu assumed unity
# Method: (§1) In vitro metabolic stability was assessed using cryopreserved hepatocytes from male Sprague Dawley rats and a pool of 50 mixed gender humans (BioIVT, Baltimore, MD). The incubation mixtures were prepared by mixing 250 μL of pre-warmed KHB (Krebs-Henseleit buffer) containing 2×10^6 cell/mL of hepatocytes with 250 μL of pre-warmed KHB buffer containing 2 μM of test compounds in a 48-well plate, giving a final concentration of 1 μM test compound (0.1% DMSO) and 1×10^6 cell/mL of hepatocytes. The reaction mixture was incubated at 37 degrees C. A 50 μL aliquot of incubation mixture was taken at time points (0, 15, 30, 60, 120 and 240 minutes) and transferred into a 96-well plate containing 300 μL ice-cold acetonitrile (containing 30 ng/mL of labetalol and 10 ng/mL of Naltrexone-d3 as internal standards) and immediately placed in ice to terminate the reaction. Samples were centrifuged, and supernatants were transferred into 96-well plates for liquid chromatography with tandem mass spectrometry (LC-MS/MS) analysis to monitor the depletion of the test compound. Data was calculated as percent remaining by assuming zero-minute time point peak area ratio (analyte/IS) as 100% and dividing remaining time point peak area ratios by zero-minute time point peak area ratio. Data were fitted to a first-order decay model to determine half-life. From a plot of log (ln) peak area against time, the slope of the line was determined. Subsequently, half-life (T1/2) and intrinsic clearance (CLint) were calculated using the equations below: • Elimination rate constant (k)=(−slope) • Half-life (T1/2) min=0.693/k • Intrinsic Clearance (CLint) (mL/min/million cells)=(V×0.693)/T1/2 • V=incubation volume mL/number of cells The in vitro T1/2 was converted to in vitro intrinsic clearance (CLint,hep) in units of mL/min/kg using the formula shown below: The in vitro intrinsic clearance (CLint,hep) was scaled to in vivo hepatic clearance (CL,hep) using the following equation which was adapted from a well-stirred model. [formula] where Q is the liver blood flow and fu is the fraction unbound (assumed to be unity in this case). All parameters used in the calculation are shown below (Table 4). The extraction ratio (ER) was calculated by dividing the hepatic clearance of a compound to the liver blood flow. The data reported in Table 5 were obtained according to the human hepatocytes stability assay described above.
row,Extraction Ratio (ER),Compound
1,0.89,CS(=O)(=O)N[C@H]1CCN(c2ccccn2)CC1COC1CCC(c2ccccn2)CC1 (some centres unmarked) [Compound 2]

# System: not listed separately
# Experiment: Hepatocytes stability assay (human hepatocytes)
# Format: in vitro ADME
# Conditions: both sexes, cryopreserved hepatocytes, 1 μM test compound, 1×10^6 cell/mL, read-out: CLint (μL/min/million cells)
# Method: as §1
row,hepatocyte CLint at 1 μM [µL/min/1e6 cells],Compound
1,53,CS(=O)(=O)N[C@H]1CCN(c2ccccn2)CC1COC1CCC(c2ccccn2)CC1 (some centres unmarked) [Compound 2]
